Measured values taken from patent US20020137929A1, “1 - (3-heterocyclylphenyl) isothiourea, -isourea, -guanidine and -amidine herbicidal agents” (Intellectual Property Department, BASF Aktiengesellschaft, priority 1998, published 2002).

What was measured:
ABUTH (Velvetleaf) = assay: Postemergence herbicidal evaluation; type: in vivo, Abutilon theophrasti
How it was run: (§1)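 Visual 0-9 injury score (stand, vigor, malformation, size, chlorosis, appearance vs untreated) taken four to five weeks post-spray, averaged across repeat tests. Test plants about two weeks old; foliar spray of acetone/water (1:1) with 0.5% surfactant delivering ~0.0156-0.500 kg active/ha.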

[1] = tested on: IPOHE (Morningglory, Ivyleaf); assay: Postemergence herbicidal evaluation; type: in vivo, Ipomoea hederacea
How it was run: as §1

[2] = tested on: TRZAWR (Wheat, Winter, cv Riband); assay: Postemergence herbicidal evaluation; type: in vivo, Triticum aestivum
How it was run: as §1

[3] = tested on: CHEAL (Lambsquarters, Common); assay: Preemergence herbicidal evaluation; type: in vivo, Chenopodium album; details: rated 4-5 weeks after treatment
How it was run: (§2)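 Greenhouse preemergence test: seed-soil mix sown on ~1 inch soil; aqueous acetone spray at equivalent of ~0.0156–0.500 kg/ha; greenhouse-held and watered; scored 0–9 visually at 4–5 weeks.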

[4] = tested on: IPOHE (Morningglory, Ivyleaf); assay: Preemergence herbicidal evaluation; type: in vivo, Ipomoea hederacea; details: rated 4-5 weeks after treatment
How it was run: as §2

ECHCG (Barnyardgrass) = assay: Preemergence herbicidal evaluation; type: in vivo, Echinochloa crus-galli; details: rated 4-5 weeks after treatment
How it was run: as §2

SETVI (Foxtail, Green) = assay: Preemergence herbicidal evaluation; type: in vivo, Setaria viridis; details: rated 4-5 weeks after treatment
How it was run: as §2

ORYSAT (Rice, Tebonnet) = assay: Preemergence herbicidal evaluation; type: in vivo, Oryza sativa, (L.) Tebonnet; details: rated 4-5 weeks after treatment
How it was run: as §2

[5] = tested on: TRZAWR (Wheat, Winter, cv Riband); assay: Preemergence herbicidal evaluation; type: in vivo, Triticum aestivum; details: rated 4-5 weeks after treatment
How it was run: as §2

[6] = tested on: ECHORC (Watergrass (Calif.)); assay: Preemergence weed control under flooded paddy conditions; type: in vivo, Echinochloa oryzoides; details: rated 3-4 weeks after treatment
How it was run: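 Seeds or propagules sown in silt loam kept flooded 1.5-3 cm; compounds in 50/50 acetone/water pipetted into flood water at about 0.0313 to 0.500 kg/ha. Greenhouse; visual 0-9 rating versus untreated control 3-4 weeks after treatment.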

MOOVA (Monochoria) = assay: as above; type: in vivo, Monochoria vaginalis; details: rated 3-4 weeks after treatment
How it was run: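 Seeds or propagules sown in top 0.5 cm of silt loam soil, flooded 1.5 to 3 cm above surface throughout. Compound in 50/50 v/v aqueous/acetone pipetted into flood water at about 0.0313 to 0.500 kg/ha. Visual 0-9 rating versus control after three to four weeks in greenhouse.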

[7] = postemergence, rate 0.0625 kg/ha

`CCCN1C(=O)CSC1=Nc1cc(-n2c(=O)cc(C(F)(F)F)n(C)c2=O)c(F)cc1Cl` [Compound 171, 3-{4-Chloro-2-fluoro-5-[(4-oxo-3-propyl-2-thiazolidinylidene)amino]phenyl}-1-methyl-6-(trifluoromethyl)-2,4 (1H, 3H)-pyrimidinedione] was tested, and the “Postemergence herbicidal rating ABUTH” value (ABUTH (Velvetleaf); Rate 0.0156 kg/ha) was 9.0, the “Postemergence herbicidal rating ABUTH” value (ABUTH (Velvetleaf); Rate 0.0313 kg/ha) was 9.0 and the “herbicidal rating ABUTH” value (ABUTH (Velvetleaf); [7]) was 9.0. For the same compound, the “Postemergence herbicidal rating IPOHE” value ([1]; Rate 0.0156 kg/ha) was 9.0, the “Postemergence herbicidal rating IPOHE” value ([1]; Rate 0.0313 kg/ha) was 9.0 and the “herbicidal rating IPOHE” value [1, 7] was 9.0. For the same compound, the “Postemergence herbicidal rating TRZAWR” value ([2]; Rate 0.0156 kg/ha) was 4.0, the “Postemergence herbicidal rating TRZAWR” value ([2]; Rate 0.0313 kg/ha) was 5.0 and the “herbicidal rating TRZAWR” value [2, 7] was 6.0. For the same compound, the “Preemergence herbicidal rating CHEAL” value ([3]; 0.0156 kg/ha) was 9.0, the “Preemergence herbicidal rating CHEAL” value ([3]; 0.0313 kg/ha) was 9.0 and the “Preemergence herbicidal rating CHEAL” value ([3]; 0.0625 kg/ha) was 9.0. The “Preemergence herbicidal rating CHEAL” value ([3]; 0.1250 kg/ha) was 9.0, the “Preemergence herbicidal rating CHEAL” value ([3]; 0.2500 kg/ha) was 9.0 and the “Preemergence herbicidal rating IPOHE” value ([4]; 0.0156 kg/ha) was 2.0. For the same compound, the “Preemergence herbicidal rating IPOHE” value ([4]; 0.0313 kg/ha) was 3.0, the “Preemergence herbicidal rating IPOHE” value ([4]; 0.0625 kg/ha) was 9.0 and the “Preemergence herbicidal rating IPOHE” value ([4]; 0.1250 kg/ha) was 9.0. For the same compound, the “Preemergence herbicidal rating IPOHE” value ([4]; 0.2500 kg/ha) was 9.0, the “Preemergence herbicidal rating ECHCG” value (ECHCG (Barnyardgrass); 0.0156 kg/ha) was 0.0 and the “Preemergence herbicidal rating ECHCG” value (ECHCG (Barnyardgrass); 0.0313 kg/ha) was 4.0. For the same compound, the “Preemergence herbicidal rating ECHCG” value (ECHCG (Barnyardgrass); 0.0625 kg/ha) was 8.0, the “Preemergence herbicidal rating ECHCG” value (ECHCG (Barnyardgrass); 0.1250 kg/ha) was 9.0 and the “Preemergence herbicidal rating ECHCG” value (ECHCG (Barnyardgrass); 0.2500 kg/ha) was 9.0. The “Preemergence herbicidal rating SETVI” value (SETVI (Foxtail, Green); 0.0156 kg/ha) was 7.0, the “Preemergence herbicidal rating SETVI” value (SETVI (Foxtail, Green); 0.0313 kg/ha) was 9.0 and the “Preemergence herbicidal rating SETVI” value (SETVI (Foxtail, Green); 0.0625 kg/ha) was 9.0. The “Preemergence herbicidal rating SETVI” value (SETVI (Foxtail, Green); 0.1250 kg/ha) was 9.0, the “Preemergence herbicidal rating SETVI” value (SETVI (Foxtail, Green); 0.2500 kg/ha) was 9.0 and the “Preemergence herbicidal rating ORYSAT” value (ORYSAT (Rice, Tebonnet); 0.0156 kg/ha) was 2.0. The “Preemergence herbicidal rating ORYSAT” value (ORYSAT (Rice, Tebonnet); 0.0313 kg/ha) was 4.0, the “Preemergence herbicidal rating ORYSAT” value (ORYSAT (Rice, Tebonnet); 0.0625 kg/ha) was 5.0 and the “Preemergence herbicidal rating ORYSAT” value (ORYSAT (Rice, Tebonnet); 0.1250 kg/ha) was 6.0. The “Preemergence herbicidal rating ORYSAT” value (ORYSAT (Rice, Tebonnet); 0.2500 kg/ha) was 8.0, the “Preemergence herbicidal rating TRZAWR” value ([5]; 0.0156 kg/ha) was 2.0 and the “Preemergence herbicidal rating TRZAWR” value ([5]; 0.0313 kg/ha) was 3.0. For the same compound, the “Preemergence herbicidal rating TRZAWR” value ([5]; 0.0625 kg/ha) was 6.0, the “Preemergence herbicidal rating TRZAWR” value ([5]; 0.1250 kg/ha) was 6.0 and the “Preemergence herbicidal rating TRZAWR” value ([5]; 0.2500 kg/ha) was 8.0. The “herbicidal effect rating, ECHORC” value ([6]; 0.0313 kg/ha) was 8.0, the “herbicidal effect rating, ECHORC” value ([6]; 0.0625 kg/ha) was 9.0 and the “herbicidal effect rating, ECHORC” value ([6]; 0.1250 kg/ha) was 9.0. The “herbicidal effect rating, ECHORC” value ([6]; 0.2500 kg/ha) was 9.0, the “herbicidal effect rating, MOOVA” value (MOOVA (Monochoria); 0.0313 kg/ha) was 9.0 and the “herbicidal effect rating, MOOVA” value (MOOVA (Monochoria); 0.0625 kg/ha) was 9.0. The “herbicidal effect rating, MOOVA” value (MOOVA (Monochoria); 0.1250 kg/ha) was 9.0 and the “herbicidal effect rating, MOOVA” value (MOOVA (Monochoria); 0.2500 kg/ha) was 9.0.
